{
  "source": "patent US11225503B2",
  "about": "“Crystobactamides” (HELMHOLTZ-ZENTRUM FÜR INFEKTIONSFORSCHUNG GMBH, priority 2013, dated 2022)",
  "test_system": "several microorganisms and cell lines",
  "assay": "Biological evaluation, summary statements over the MIC and cytotoxicity tests",
  "format": "cell-based",
  "description": "Cells were seeded at 6×10^3 cells per well of 96-well plates (Corning CellBind®) in complete medium (180 μl) and directly treated with cystobactamides dissolved in methanol in a serial dilution. Compound were tested in duplicate for 5 d, as well as the internal solvent control. After 5 d incubation, 5 mg/ml MTT in PBS (20 μL) was added per well and it was further incubated for 2 h at 37° C.[7] The medium was then discarded and cells were washed with PBS (100 μl) before adding 2-propanol/10N HCl (250:1, v/v; 100 μl) in order to dissolve formazan granules. The absorbance at 570 nm was measured using a microplate reader (EL808, Bio-Tek Instruments Inc.).\nMIC values were determined in microdilution assays. Overnight cultures were diluted in the appropriate growth medium to achieve an inoculum of 10^4-10^6 cfu/mL. Yeasts were grown in Myc medium (1% phytone peptone, 1% glucose, 50 mM HEPES, pH 7.0), S. pneumonia and E. faecalis in tryptic soy broth (TSB: 1.7% peptone casein, 0.3% peptone soymeal, 0.25% glucose, 0.5% NaCl, 0.25% K2HPO4; pH 7.3); M. smegmatis in Middlebrook 7H9 medium supplemented with 10% Middlebrook ADC enrichment and 2 ml/l glycerol). All other listed bacteria were grown in Müller-Hinton broth (0.2% beef infusion solids, 1.75% casein hydrolysate, 0.15% starch, pH 7.4). Cystobactamides and reference drugs were added directly to the cultures in sterile 96-well plates as duplicates and serial dilutions were prepared. Microorganisms were grown on a microplate shaker (750 rpm, 30-37° C., 18-48 h), except S. pneumonia, which was grown at non-shaking conditions (37° C., 5% CO2, 18 h). Growth inhibition was assessed by visual inspection and the MIC was defined as the lowest concentration of compound that inhibited visible growth.",
  "data": [
    {"compound": "CO[C@H](C(=O)Nc1ccc(C(=O)Nc2ccc(C(=O)Nc3ccc(C(=O)O)cc3OC(C)C)c(O)c2OC(C)C)cc1)[C@H](NC(=O)c1ccc(NC(=O)c2ccc([N+](=O)[O-])cc2)cc1)C(=O)O", "note": "[cystobactamide A, Cystobactamide A]", "values": [
      {"measurement": "inhibition of pathogenic Gram-negative strains A. baumannii and P. aeruginosa (MIC range)", "setting": "A. baumannii and P. aeruginosa", "value": "low μg/ml range"},
      {"measurement": "average potency on Gram-positive bacteria compared with ciprofloxacin", "setting": "E. faecalis, S. aureus, S. pneumonia, average MIC", "value": "exceeded that of ciprofloxacin"}
    ]}
  ]
}
